Test results reported in ChEMBL document CHEMBL1155042, “Carbamates with differential mechanism of inhibition toward acetylcholinesterase and butyrylcholinesterase” (J Med Chem, 2008).
Active and inactive are the calls of the source. No cut-off for these calls is given here.

Tests used:
[1] = molecular target: T1, Cholinesterase (Homo sapiens, UniProt P06276); test: Inhibition of human serum BchE by Ellman's assay
[2] = molecular target: Acetylcholinesterase (Homo sapiens) (UniProt P22303)
Description: Inhibition of human recombinant AchE by Ellman's assay

[3] = molecular target: T1, Cholinesterase; test: Inhibition of human serum BchE at 23.6 uM by Ellman's assay
[4] = molecular target: T1, Cholinesterase; test: Deactivation of human wild type recombinant BchE assessed as residual enzyme activity at 2.1 uM after 5 mins
[5] = molecular target: T1, Cholinesterase; test: Deactivation of human wild type recombinant BchE assessed as residual enzyme activity at 2.1 uM after 10 mins
[6] = molecular target: T1, Cholinesterase; test: Deactivation of human wild type recombinant BchE assessed as residual enzyme activity at 2.1 uM after 15 mins
[7] = molecular target: T1, Cholinesterase; test: Deactivation of human BchE D70G mutant assessed as residual enzyme activity at 2.1 uM after 5 mins
[8] = molecular target: T1, Cholinesterase; test: Deactivation of human BchE D70G mutant assessed as residual enzyme activity at 2.1 uM after 10 mins
[9] = molecular target: T1, Cholinesterase; test: Deactivation of human BchE D70G mutant assessed as residual enzyme activity at 2.1 uM after 15 mins
[10] = molecular target: T1, Cholinesterase; test: Deactivation of human BchE A539T mutant assessed as residual enzyme activity at 2.1 uM after 5 mins
[11] = molecular target: T1, Cholinesterase; test: Deactivation of human BchE A539T mutant assessed as residual enzyme activity at 2.1 uM after 10 mins
[12] = molecular target: T1, Cholinesterase; test: Deactivation of human BchE A539T mutant assessed as residual enzyme activity at 2.1 uM after 15 mins
[13] = molecular target: T1, Cholinesterase; test: Deactivation of human BchE Y332A mutant assessed as residual enzyme activity at 2.1 uM after 5 mins
[14] = molecular target: T1, Cholinesterase; test: Deactivation of human BchE Y332A mutant assessed as residual enzyme activity at 2.1 uM after 10 mins
[15] = molecular target: T1, Cholinesterase; test: Deactivation of human BchE Y332A mutant assessed as residual enzyme activity at 2.1 uM after 15 mins
[16] = molecular target: T1, Cholinesterase; test: Deactivation of human BchE A328Y mutant assessed as residual enzyme activity at 2.1 uM after 5 mins
[17] = molecular target: T1, Cholinesterase; test: Deactivation of human BchE A328Y mutant assessed as residual enzyme activity at 2.1 uM after 10 mins
[18] = molecular target: T1, Cholinesterase; test: Deactivation of human BchE A328Y mutant assessed as residual enzyme activity at 2.1 uM after 15 mins
[19] = molecular target: T1, Cholinesterase; test: Deactivation of human BchE A328F mutant assessed as residual enzyme activity at 2.1 uM after 5 mins
[20] = molecular target: T1, Cholinesterase; test: Deactivation of human BchE A328F mutant assessed as residual enzyme activity at 2.1 uM after 10 mins
[21] = molecular target: T1, Cholinesterase; test: Deactivation of human BchE A328F mutant assessed as residual enzyme activity at 2.1 uM after 15 mins
[22] = molecular target: T1, Cholinesterase; test: Deactivation of human BchE A328W mutant assessed as residual enzyme activity at 2.1 uM after 5 mins
[23] = molecular target: T1, Cholinesterase; test: Deactivation of human BchE A328W mutant assessed as residual enzyme activity at 2.1 uM after 10 mins
[24] = molecular target: T1, Cholinesterase; test: Deactivation of human BchE A328W mutant assessed as residual enzyme activity at 2.1 uM after 15 mins
[25] = molecular target: T1, Cholinesterase; test: Deactivation of human BchE F329S mutant assessed as residual enzyme activity at 2.1 uM after 5 mins
[26] = molecular target: T1, Cholinesterase; test: Deactivation of human BchE F329S mutant assessed as residual enzyme activity at 2.1 uM after 10 mins
[27] = molecular target: T1, Cholinesterase; test: Deactivation of human BchE F329S mutant assessed as residual enzyme activity at 2.1 uM after 15 mins
[28] = molecular target: T1, Cholinesterase; test: Deactivation of human BchE F329A mutant assessed as residual enzyme activity at 2.1 uM after 5 mins
[29] = molecular target: T1, Cholinesterase; test: Deactivation of human BchE F329A mutant assessed as residual enzyme activity at 2.1 uM after 10 mins
[30] = molecular target: T1, Cholinesterase; test: Deactivation of human BchE F329A mutant assessed as residual enzyme activity at 2.1 uM after 15 mins
[31] = molecular target: T1, Cholinesterase; test: Inhibition of human serum BchE at 73.3 uM by Ellman's assay

T1 sequence (P06276 whole entry): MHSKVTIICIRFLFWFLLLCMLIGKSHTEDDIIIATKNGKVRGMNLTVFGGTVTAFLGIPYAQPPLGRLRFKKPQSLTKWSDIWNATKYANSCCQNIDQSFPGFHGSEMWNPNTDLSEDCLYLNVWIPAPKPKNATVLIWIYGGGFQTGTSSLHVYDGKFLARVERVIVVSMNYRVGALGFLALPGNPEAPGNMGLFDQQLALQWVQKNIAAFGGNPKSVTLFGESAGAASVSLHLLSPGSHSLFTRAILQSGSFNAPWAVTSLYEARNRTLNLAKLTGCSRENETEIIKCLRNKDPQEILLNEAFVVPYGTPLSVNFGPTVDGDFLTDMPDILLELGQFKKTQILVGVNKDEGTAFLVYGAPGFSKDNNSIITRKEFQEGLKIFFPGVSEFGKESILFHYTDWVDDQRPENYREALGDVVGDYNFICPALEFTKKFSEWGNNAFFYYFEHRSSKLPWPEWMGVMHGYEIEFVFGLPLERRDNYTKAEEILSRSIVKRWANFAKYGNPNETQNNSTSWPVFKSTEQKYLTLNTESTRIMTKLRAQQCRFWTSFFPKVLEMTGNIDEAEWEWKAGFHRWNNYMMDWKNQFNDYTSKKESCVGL
Chain of Acetylcholinesterase (Homo sapiens) (P22303 whole entry): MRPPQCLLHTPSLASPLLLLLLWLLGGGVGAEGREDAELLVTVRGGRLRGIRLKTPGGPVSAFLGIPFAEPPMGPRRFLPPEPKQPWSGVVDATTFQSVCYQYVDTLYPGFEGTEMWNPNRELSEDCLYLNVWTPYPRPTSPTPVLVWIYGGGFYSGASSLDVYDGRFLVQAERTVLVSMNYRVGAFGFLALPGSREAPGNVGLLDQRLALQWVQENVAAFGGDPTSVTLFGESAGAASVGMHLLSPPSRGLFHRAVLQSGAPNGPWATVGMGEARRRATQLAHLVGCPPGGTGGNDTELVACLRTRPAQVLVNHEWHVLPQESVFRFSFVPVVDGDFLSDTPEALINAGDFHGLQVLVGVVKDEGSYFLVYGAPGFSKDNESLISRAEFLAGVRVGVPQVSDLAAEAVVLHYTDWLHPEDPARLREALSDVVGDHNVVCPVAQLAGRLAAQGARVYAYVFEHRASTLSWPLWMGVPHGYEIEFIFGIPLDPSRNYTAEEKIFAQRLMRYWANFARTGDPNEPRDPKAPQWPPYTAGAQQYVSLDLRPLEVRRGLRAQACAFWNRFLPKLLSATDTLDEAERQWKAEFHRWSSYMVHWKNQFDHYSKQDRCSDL

Q: For `Cc1ccccc1OC(=O)N1c2ccccc2Sc2ccccc21`, which Ki [1] is on record?
A: 390 nM

Q: What about the Ka [2] of the same molecule?
A: 547 ×10³ /M/min

Q: Which results are given for `Cc1ccc(OC(=O)N2c3ccccc3Sc3ccccc32)cc1`?
A: Ki [1]: 2850 nM; Ka [2]: 92.6 ×10³ /M/min

Q: For `O=C(Oc1ccc(Cl)cc1)N1c2ccccc2Sc2ccccc21`, which Ki [1] is on record?
A: 10500 nM

Q: What about the Ka [2] of the same molecule?
A: 7.25 ×10³ /M/min

Q: How did the Ki [1] turn out when `O=C(Oc1ccccc1Cl)N1c2ccccc2Sc2ccccc21` was run?
A: 45400 nM

Q: What about the Ka [2] of the same molecule?
A: 18.7 ×10³ /M/min

Q: How did the Ki [1] turn out when `CCOC(=O)N1c2ccccc2Sc2ccccc21` was run?
A: 23400 nM

Q: And the Ka [2]?
A: 0.193 ×10³ /M/min

Q: How did the Ki [1] turn out when `CCCCOC(=O)N1c2ccccc2Sc2ccccc21` was run?
A: 13400 nM

Q: And the Ka [2]?
A: 0.135 ×10³ /M/min

Q: How did the Ki [1] turn out when `CC(C)OC(=O)N1c2ccccc2Sc2ccccc21` was run?
A: 18100 nM

Q: And the Ka [2]?
A: 1.8 ×10³ /M/min

Q: With `CCN(CC)CCOC(=O)N1c2ccccc2Sc2ccccc21` as the molecule, how does the Ki [1] read?
A: 610 nM

Q: What about the Ka [2] of the same molecule?
A: 0.24 ×10³ /M/min

Q: Which results are given for `O=C(Oc1cccc2ccccc12)N1c2ccccc2Sc2ccccc21`?
A: Ki [1]: 36 nM; Ka [2]: 1650 ×10³ /M/min

Q: How did the Ki [1] turn out when `O=C(Oc1ccccc1)N1c2ccccc2Sc2ccccc21` was run?
A: 570 nM

Q: And the Ka [2]?
A: 46 ×10³ /M/min

Q: Which Ki [1] does the source give for `CC(C)(C)c1ccccc1OC(=O)N1c2ccccc2Sc2ccccc21` here?
A: 120 nM

Q: What about the Ka [2] of the same molecule?
A: 0.011 ×10³ /M/min

Q: With `O=C(Oc1ccc(-c2ccccc2)cc1)N1c2ccccc2Sc2ccccc21` as the molecule, how does the Activity [3] read?
A: inactive

Q: And the Activity [4]?
A: 100%

Q: What about the Activity [5] of the same molecule?
A: 100%

Q: What about the Activity [6] of the same molecule?
A: 100%

Q: What about the Activity [7] of the same molecule?
A: 99.5%

Q: And the Activity [8]?
A: 90%

Q: What about the Activity [9] of the same molecule?
A: 76%

Q: What about the Activity [10] of the same molecule?
A: 99%

Q: What about the Activity [11] of the same molecule?
A: 94%

Q: And the Activity [12]?
A: 93%

Q: What about the Activity [13] of the same molecule?
A: 58%

Q: What about the Activity [14] of the same molecule?
A: 87%

Q: What about the Activity [15] of the same molecule?
A: 85%

Q: What about the Activity [16] of the same molecule?
A: 85%

Q: What about the Activity [17] of the same molecule?
A: 67%

Q: And the Activity [18]?
A: 63%

Q: And the Activity [19]?
A: 88%

Q: And the Activity [20]?
A: 75%

Q: And the Activity [21]?
A: 59%

Q: What about the Activity [22] of the same molecule?
A: 74%

Q: What about the Activity [23] of the same molecule?
A: 57%

Q: And the Activity [24]?
A: 35%

Q: What about the Activity [25] of the same molecule?
A: 51%

Q: What about the Activity [26] of the same molecule?
A: 15%

Q: What about the Activity [27] of the same molecule?
A: 11%

Q: And the Activity [28]?
A: 46%

Q: And the Activity [29]?
A: 26%

Q: And the Activity [30]?
A: 12%

Q: What about the Ka [2] of the same molecule?
A: 910 ×10³ /M/min

Q: With `CN(C)CCOC(=O)N1c2ccccc2Sc2ccccc21` as the molecule, how does the Ki [1] read?
A: 2450 nM

Q: And the Ka [2]?
A: 0.546 ×10³ /M/min

Q: What does the source list for `COC(=O)N1c2ccccc2Sc2ccccc21`?
A: Ki [1]: 10200 nM; Ka [2]: 0.426 ×10³ /M/min

Q: For `CN(C)c1cccc(OC(=O)N2c3ccccc3Sc3ccccc32)c1`, which Ki [1] is on record?
A: 1910 nM

Q: What about the Ka [2] of the same molecule?
A: 19200 ×10³ /M/min

Q: Which results are given for `O=C(Oc1cccc(Cl)c1)N1c2ccccc2Sc2ccccc21`?
A: Ki [1]: 570 nM; Ka [2]: 3.21 ×10³ /M/min

Q: What does the source list for `O=C(Oc1ccc2ccccc2c1)N1c2ccccc2Sc2ccccc21`?
A: Ki [1]: 120 nM; Ka [2]: 11.2 ×10³ /M/min

Q: For `COc1ccccc1OC(=O)N1c2ccccc2Sc2ccccc21`, which Ki [1] is on record?
A: 340 nM

Q: What about the Ka [2] of the same molecule?
A: 5.99 ×10³ /M/min

Q: How did the Ki [1] turn out when `O=C(OC1CCCC1)N1c2ccccc2Sc2ccccc21` was run?
A: 3190 nM

Q: What about the Ka [2] of the same molecule?
A: 0.492 ×10³ /M/min

Q: How did the Activity [31] turn out when `CC(C)(C)c1ccc(OC(=O)N2c3ccccc3Sc3ccccc32)cc1` was run?
A: inactive

Q: What about the Ka [2] of the same molecule?
A: 0.63 ×10³ /M/min

Q: With `O=C(OCCN1CCCCC1)N1c2ccccc2Sc2ccccc21` as the molecule, how does the Ki [1] read?
A: 3200 nM

Q: And the Ka [2]?
A: 3 ×10³ /M/min

Q: `CCCOC(=O)N1c2ccccc2Sc2ccccc21` was tested. Which Ki [1] did it give?
A: 260000 nM

Q: What about the Ka [2] of the same molecule?
A: 0.219 ×10³ /M/min

Q: `O=C(OCCN1CCCC1)N1c2ccccc2Sc2ccccc21` was tested. Which Ki [1] did it give?
A: 650 nM

Q: What about the Ka [2] of the same molecule?
A: 46 ×10³ /M/min

Q: What does the source list for `Cc1cccc(OC(=O)N2c3ccccc3Sc3ccccc32)c1`?
A: Ki [1]: 1690 nM; Ka [2]: 7.49 ×10³ /M/min

Q: For `COc1ccc(OC(=O)N2c3ccccc3Sc3ccccc32)cc1`, which Ki [1] is on record?
A: 2260 nM

Q: And the Ka [2]?
A: 1.42 ×10³ /M/min

Q: For `O=C(OCCN1CCOCC1)N1c2ccccc2Sc2ccccc21`, which Ki [1] is on record?
A: 2400 nM

Q: What about the Ka [2] of the same molecule?
A: 0.12 ×10³ /M/min

Q: Which results are given for `COc1cccc(OC(=O)N2c3ccccc3Sc3ccccc32)c1`?
A: Ki [1]: 710 nM; Ka [2]: 89.4 ×10³ /M/min

Q: How did the Ki [1] turn out when `CC(C)(C)OC(=O)N1c2ccccc2Sc2ccccc21` was run?
A: 4300 nM

Q: And the Ka [2]?
A: 0.219 ×10³ /M/min

Q: Which Ki [1] does the source give for `CCN(CC)CCCOC(=O)N1c2ccccc2Sc2ccccc21` here?
A: 740 nM

Q: What about the Ka [2] of the same molecule?
A: 0.21 ×10³ /M/min
